Blank lines part the entries; values can stand above or below the molecule they belong to.
Columns and labels:
[1] = Half life in mouse at 2 mg/kg, iv or 10 mg/kg, po measured up to 24 hrs by LC-MS/MS analysis; assay type: ADME, organism-based; conditions: in vivo
Adenosine receptor A2a [2] = biological target: T1, Adenosine receptor A2a (Homo sapiens, UniProt P29274); test: Antagonist activity at human adenosine 2A receptor expressed in HEK293 cells assessed as reduction in NECA-induced cAMP level incubated for 15 mins by HTRF assay; assay type: functional, cell-based
Homo sapiens [3] = organism: Homo sapiens; test: Selectivity ratio of IC50 for human adenosine A1 receptor expressed in CHO cells to IC50 for human adenosine 2A receptor expressed in HEK293 cells; assay type: cell-based
[4] = Cmax in mouse at 1 mg/kg, iv measured up to 24 hrs by LC-MS/MS analysis; assay type: ADME, organism-based; design: route intravenous, dose 1 mg/kg, time <=24; conditions: in vivo
Homo sapiens [5] = organism: Homo sapiens; test: Selectivity ratio of IC50 for human adenosine A3 receptor expressed in CHO cells to IC50 for human adenosine 2A receptor expressed in HEK293 cells; assay type: cell-based
Homo sapiens [6] = organism: Homo sapiens; test: Selectivity ratio of IC50 for human adenosine 2B receptor expressed in HEK293 cells to IC50 for human adenosine 2A receptor expressed in HEK293 cells; assay type: cell-based
[7] = biological target: T2, Adenosine receptor A2b (Homo sapiens) (UniProt P29275); test: Antagonist activity at human adenosine 2B receptor expressed in CHO-K1 cells preincubated for 1 hr followed by NECA stimulation and measured after 30 mins by Eu-cAMP tracer based TR-FRET assay; assay type: functional, cell-based; conditions: filed as antagonist, time 1.5 hrs
T2 sequence (whole entry): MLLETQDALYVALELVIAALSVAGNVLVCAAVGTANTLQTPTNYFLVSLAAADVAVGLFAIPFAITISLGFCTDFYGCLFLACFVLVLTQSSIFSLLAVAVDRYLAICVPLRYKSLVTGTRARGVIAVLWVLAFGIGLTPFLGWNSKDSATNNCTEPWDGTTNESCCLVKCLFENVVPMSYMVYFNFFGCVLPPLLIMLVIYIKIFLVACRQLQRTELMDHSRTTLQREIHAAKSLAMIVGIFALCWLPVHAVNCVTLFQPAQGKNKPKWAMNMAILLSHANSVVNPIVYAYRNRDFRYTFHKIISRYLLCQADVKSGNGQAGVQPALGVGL

Adenosine receptor A2a [8] = biological target: T1, Adenosine receptor A2a; test: Antagonist activity at human adenosine 2A receptor expressed in T-REx-CHO cells preincubated for 1 hr followed by NECA stimulation and measured after 30 mins by Eu-cAMP tracer based TR-FRET assay; assay type: functional, cell-based; conditions: filed as antagonist, time 1.5 hrs
Adenosine receptor A2a [9] = biological target: T1, Adenosine receptor A2a; test: Antagonist activity at adenosine 2A receptor in human PBMC assessed as reversal of NECA/CD3/CD28-stimulated IL-2 release incubated for 24 hrs
Adenosine receptor A2a [10] = biological target: T1, Adenosine receptor A2a; test: Antagonist activity at adenosine 2A receptor in human blood assessed as reversal of NECA/LPS-stimulated TNF-alpha release incubated for 5 hrs; assay type: tissue-based
Adenosine receptor A1 = biological target: T3, Adenosine receptor A1 (Homo sapiens, UniProt P30542); test: Antagonist activity at human adenosine A1 receptor expressed in CHO cells by radioligand competition binding assay; assay type: cell-based
T3 sequence (P30542 whole entry): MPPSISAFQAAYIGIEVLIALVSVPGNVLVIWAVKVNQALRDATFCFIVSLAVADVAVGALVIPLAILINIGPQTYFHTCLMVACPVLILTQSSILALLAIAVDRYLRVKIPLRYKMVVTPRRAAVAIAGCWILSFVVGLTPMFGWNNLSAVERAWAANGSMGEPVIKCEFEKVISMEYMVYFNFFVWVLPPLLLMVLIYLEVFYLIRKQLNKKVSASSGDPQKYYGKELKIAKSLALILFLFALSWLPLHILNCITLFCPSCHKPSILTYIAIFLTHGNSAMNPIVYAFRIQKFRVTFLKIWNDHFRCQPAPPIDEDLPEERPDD

Adenosine receptor A2b = biological target: T4, Adenosine receptor A2b (Homo sapiens, UniProt P29275); test: Antagonist activity at human adenosine A2b receptor expressed in HEK293 cells by radioligand competition binding assay; assay type: cell-based
T4 sequence (P29275 whole entry): T2 sequence (whole entry)

Adenosine receptor A3 = biological target: T5, Adenosine receptor A3 (Homo sapiens, UniProt P0DMS8); test: Antagonist activity at human adenosine A3 receptor expressed in HeLa cells by radioligand competition binding assay; assay type: cell-based
T5 sequence (P0DMS8 whole entry): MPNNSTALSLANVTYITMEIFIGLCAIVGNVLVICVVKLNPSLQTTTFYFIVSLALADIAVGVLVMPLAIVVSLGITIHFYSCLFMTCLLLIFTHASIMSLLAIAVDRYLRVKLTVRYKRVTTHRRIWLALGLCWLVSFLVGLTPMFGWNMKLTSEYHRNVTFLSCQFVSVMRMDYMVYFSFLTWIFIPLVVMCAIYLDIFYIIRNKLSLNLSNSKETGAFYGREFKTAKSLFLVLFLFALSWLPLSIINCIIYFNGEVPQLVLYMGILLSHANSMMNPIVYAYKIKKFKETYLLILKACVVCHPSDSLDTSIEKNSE

[11] = biological target: Adenosine receptor A2a (Rattus norvegicus) (UniProt P30543); test: Antagonist activity at adenosine 2A receptor in rat PC12 cells assessed as reduction in NECA-induced cAMP level incubated for 30 mins by TR-FRET assay; assay type: functional, cell-based; conditions: PC-12, filed as antagonist
[12] = Cmax in human at 75 to 200 mg; assay type: ADME; design: dose 75-200
[13] = Tmax in human at 75 to 200 mg administered as multiple ascending dose; assay type: ADME; conditions: in vivo, dose 75-200 mg
[14] = Half life in human at 75 to 200 mg; assay type: ADME; conditions: dose 75-200 mg
[15] = Tmax in human at 75 to 200 mg administered as single ascending dose; assay type: ADME; conditions: in vivo, dose 75-200 mg

T1 sequence (P29274 whole entry): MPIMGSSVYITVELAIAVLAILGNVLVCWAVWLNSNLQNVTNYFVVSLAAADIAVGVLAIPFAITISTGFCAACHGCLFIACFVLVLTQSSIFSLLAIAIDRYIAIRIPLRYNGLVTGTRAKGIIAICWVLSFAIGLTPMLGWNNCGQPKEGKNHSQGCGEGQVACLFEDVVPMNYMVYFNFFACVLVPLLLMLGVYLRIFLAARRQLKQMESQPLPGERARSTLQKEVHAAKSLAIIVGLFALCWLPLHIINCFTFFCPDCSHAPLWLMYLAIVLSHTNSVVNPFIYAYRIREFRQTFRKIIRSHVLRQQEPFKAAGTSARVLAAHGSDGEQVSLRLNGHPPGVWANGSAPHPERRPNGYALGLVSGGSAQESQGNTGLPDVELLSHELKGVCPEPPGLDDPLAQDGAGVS
Adenosine receptor A2a (Rattus norvegicus), sequence (P30543 whole entry): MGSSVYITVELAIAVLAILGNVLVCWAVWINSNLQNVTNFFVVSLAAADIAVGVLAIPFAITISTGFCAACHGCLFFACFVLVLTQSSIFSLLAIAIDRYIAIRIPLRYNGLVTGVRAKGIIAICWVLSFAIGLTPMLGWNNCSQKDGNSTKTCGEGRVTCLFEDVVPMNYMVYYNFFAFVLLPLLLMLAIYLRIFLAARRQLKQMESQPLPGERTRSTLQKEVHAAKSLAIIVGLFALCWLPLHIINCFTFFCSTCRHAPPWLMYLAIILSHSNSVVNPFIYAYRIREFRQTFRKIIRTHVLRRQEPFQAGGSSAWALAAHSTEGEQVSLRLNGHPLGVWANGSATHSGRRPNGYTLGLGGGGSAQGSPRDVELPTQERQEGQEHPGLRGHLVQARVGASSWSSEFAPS

SMILES: COCCn1cc(C(=O)Nc2nc3c(OC)ccc(N4CCOCC4)c3s2)cn1
- half-life [1]: 19.9 min

SMILES: COc1cccc2c(-c3cn(Cc4cccc(C(C)(O)C(F)(F)F)[n+]4[O-])nn3)nc(N)nc12 (stereo not given)
- Kb [7]: < 100 nM
- Kb (Adenosine receptor A2a [8]): < 100 nM

SMILES: Cc1cccnc1CNC(=O)c1c(N)nc(-c2ccco2)nc1OC[C@H](C)O
- IC50 (Adenosine receptor A2a [9]): 77 nM
- IC50 (Adenosine receptor A2a [10]): > 200 nM

SMILES: COc1ncc(N2CCOCC2)c2nc(NC(=O)N3CCC(C)(O)CC3)[nH]c12
- half-life [1]: 50.3 min
- Cmax [4]: 2650 ng/mL

SMILES: Cc1c(C#N)cccc1-c1cc(-c2cn(Cc3cccc(C(C)(C)O)n3)nn2)nc(N)n1 [ETRUMADENANT]
- Cmax [12]: 1170 ng/mL
- Tmax [13]: 90 min
- half-life [14]: 1200 min
- Tmax [15]: 120 min

SMILES: COCCn1cc(C(=O)Nc2cnc3c(C4CCOCC4)ccc(OC)c3n2)cn1
- half-life [1]: 20.3 min
- Cmax [4]: 1220 ng/mL

Now from value to molecule, other results behind:

- IC50 (Adenosine receptor A2a [2]): < 10 nM
- half-life [1]: 69 min
- Cmax [4]: 2100 ng/mL
SMILES: COc1ccc(N2CCOCC2)c2nc(NC(=O)c3cccc(N4CCOCC4)c3)[nH]c12
- Ratio IC50 (Homo sapiens [3]): 1000
- Ratio IC50 (Homo sapiens [5]): 1000
- Ratio IC50 (Homo sapiens [6]): 1000

- half-life [1]: 11 min
- Cmax [4]: 337 ng/mL
SMILES: COc1ccc(N2CCOCC2)c2sc(NC(=O)N3CCC(C)(O)CC3)nc12 [TOZADENANT]

- half-life [1]: 55.2 min
SMILES: COc1ccc(C2CCOCC2)c2ncc(NC(=O)N3CCC(C)(O)CC3)nc12

- Ki (Adenosine receptor A1): 2500 nM
- Ki (Adenosine receptor A2b): 1000 nM
- Ki (Adenosine receptor A3): 5000 nM
SMILES: Nc1nc(-n2cccn2)nc(-n2cccn2)c1Br [PBF-509]

- Kb [11]: < 10000 nM
SMILES: Nc1nc(-c2ccccc2)c(-c2ccc(O)c(Cl)c2)n2ccnc12

- Kb [7]: < 100 nM
- Kb (Adenosine receptor A2a [8]): < 100 nM
SMILES: COc1cccc2c(-c3cn(Cc4cccc(C(C)(C)O)n4)nn3)nc(N)nc12

- half-life [1]: 52 min
- Cmax [4]: 1320 ng/mL
SMILES: COc1ccc(-c2cnn(C)c2)c2nc(NC(=O)N3CCC(C)(O)CC3)[nH]c12
